Earlier results on one molecule are cited in US20140106008A1, “GLYCEROL COMPOSITIONS AND SOLUTIONS” (BIO-ENERGY INGREDIENTS LIMITED, priority 2011, published 2014).

Molecules are shown by their SMILES.

This series relates to exposed organisms. The note with it: aquatic toxicity.

With `OCC(O)CO` [Glycerol, propane-1,2,3-triol], the “TLm96 value, concentration that will kill 50% of the exposed organisms in 96 hours” value is reported as “over 1000 mg/litre”.
